The text below walks through data of US20110166428A1, “NOVEL METHOD FOR MEASURING INSULIN RESISTANCE” (UNIVERSITE JOSEPH FOURIER, priority 2008, published 2011).

Where “and” joins values, the source holds several entries; their conditions need not be identical. Identical values can stand only once.

The nature of data set [1]: Scintigraphy of 123I-6DIG in the dog: thoracic and blood activity, fasting or under GIK. The class given is in vivo. Conditions: for slope of cardiac activity measured between 2 and 5 minutes: dog heart, FIG. 8. As for the experimental part: This graph represents on the y-axis the variations in […], for one pixel and in the quantity (in mCi) of 6DIG injected, in relation to the x-axis which represents the data acquisition time in minutes, in the heart of a dog. The measured activity is related to the number of pixels, since when a region of interest is determined on a scintigraphy image, the number of pixels in the manually selected zone is not always the same.
Two series of data are shown; a first series of measurements indicated by linked squares represents the data recorded for a fasting animal. A second series of data, indicated by linked circles, represents the data recorded for an animal perfused with a GIK solution (Glucose/Insulin/potassium).
Animals: male beagle dogs aged about 1 year, weighing between 15 and 20 kg and fed with a standard diet Jape 21 (Ets L. Pietrement).
The dogs, premedicated with an intramuscular injection of ketamine (10 mg/kg), are anaesthetised by means of an intravenous injection of sodium thiopental (25 mg/kg). The animals are intubated and ventilated throughout the experiment and kept asleep with halothane in the ventilation circuit (oxygen-enriched air).
6DIG (20 μmol) labelled with iodine 123 (about 4 mCi) is injected intravenously. The scintigraphy images are acquired by means of a standard gamma camera equipped with a high resolution collimator and the […] is set at 160 keV with a 20% window. The variation in the thoracic radioactivity (heart, lungs and liver) with time is measured for 30 minutes post-injection, at the rate of one image per minute. The change in the blood activity is obtained by taking blood samples (1, 2, 3, 4, 5, 10. 15, 20 and 30 min p.i.) and the measurement of the radioactivity by means of a gamma counter (Packard).
Two protocols were followed, the first was implemented in fasting animals (withdrawal of food the night before the experiment, n=1) and the second was implemented in animals perfused with a GIK (Glucose/Insulin/Potassium) solution containing in particular insulin (30% glucose, 4 g/l of KCl and 80 IU/kg of insulin, n=2) and maintained throughout the experiment.

Data set [2] deals with Zucker rats (insulin resistant). Kind of data set: Sensitivity of the empirical index of glucose transport into the heart, Rosiglitazone vs placebo. The class given is in vivo, rat. Conditions: three weeks after treatment. An excerpt: (§1) This graph represents the mean obtained during the calculations of empirical descriptor in the heart, in the Zucker rat, with or without treatment with Rosiglitazone or with a placebo. The values of the descriptor are shown on the y-axis. The x-axis comprises 4 columns: the two on the left and the two on the right; the two on the left relate to the values observed for the rats at the start of observation before any injection, and the two on the right relate to the rats 21 days after injection. The white columns indicate rats having undergone an injection of Rosiglitazone, the black columns indicate rats having undergone an injection of a placebo.
The rat receives a first bolus of 6-DIG labelled with iodine 123 (about 250 μCi, this activity being counted in a Capintec CRC15R ionisation chamber supplied by Aries, France) in the basal condition. The activity of the 6-DIG is monitored with the gamma camera (field of view 10 cm, intrinsic resolution 1.8 mm, Biospace, France) in cardiac cells for 20 minutes. During these 20 minutes, the radioactivity is counted in “LIST” mode and analysed a posteriori.
The rat then receives an injection of insulin (2.5 IU/kg), performed 5 minutes before a second injection of the tracer (about 250 μCi). The activity of the 6-DIG is again monitored with the gamma camera in cardiac cells for 20 minutes. […]

Data set [3] shares this test system. The data set is described as follows: Sensitivity of the theoretical index k(2,1) insulin/basal of glucose transport into the heart, Rosiglitazone vs placebo. The format is in vivo, rat. Conditions: seven days after treatment, p<0.05, FIG. 18.
From the text: as §1, with “during” for “during the”, “the theoretical index” for “empirical descriptor”, “index” for “descriptor”, “7” for “21”
The model utilised is a three-compartment mammillary model, derived from that used to measure the kinetic parameters of transport of 3OMG, the reference tracer for glucose transport (Cobelli, 1989; Am. J. Physiol., 257, E444-E450). It makes it possible to study the biological behaviour of the tracer after injection in the rat in vivo (Slimani L. et al., CR Biol, 2002, 325(4), 529-546). The central compartment (s1) represents the plasma. […] The radioactivity measured at the level of compartments 1 and 2 is designated respectively as q1 and q2. […]
The index characterizing the rate of glucose transport into the heart was measured twice, 7 days apart, on the same animal, treated with Rosiglitazone or a placebo. […]

The test system is the same in data set [4]. Kind of data set: Sensitivity of the empirical index of glucose transport into the skeletal muscle, Rosiglitazone vs placebo. To be noted: three weeks after treatment. The format is in vivo, rat. The text has this: This graph represents the mean obtained during calculations of the empirical descriptor in the skeletal muscle, in the Zucker rat, with or without treatment with Rosiglitazone or with a placebo. The values of the descriptor are shown on the y-axis. The x-axis comprises 4 columns: the two on the left and the two on the right; the two on the left relate to the values observed for the rats at the start of observation before any injection, and the two on the right relate to the rats 21 days after injection. The white columns indicate rats having undergone an injection of Rosiglitazone, the black columns indicate rats having undergone an injection of a placebo.
The rat receives a first bolus of 6-DIG labelled with iodine 123 (about 250 μCi, this activity being counted in a Capintec CRC15R ionisation chamber supplied by Aries, France) in the basal condition. The activity of the 6-DIG is monitored with the gamma camera (field of view 10 cm, intrinsic resolution 1.8 mm, Biospace, France), or with the NaI probe (Scintibloc from Crismatec (Nemours, France) and ScintiSPEC, Aries) in skeletal muscle cells (quadriceps of hind paw) for 20 minutes. During these 20 minutes, the radioactivity is counted in “LIST” mode (TD. Cradduck, Computers in Nuclear Medicine, Vol. 5; No. 1, 1985, Radiographics) and analysed a posteriori […]

Turning to `O=C[C@H](O)[C@@H](O)[C@H](O)[C@H](O)CI` [6DIG, 6-Deoxy-6-Iodo-D-Glucose], the “slope of cardiac activity measured between 2 and 5 minutes” value in data set [1] (fasting) is 0.013; in data set [1] (under GIK perfusion) it was 0.044 and 0.022. In addition, the blood activity entry in data set [1] (dog, i.v., blood samples, gamma counter) is reported as “decreases very rapidly”. Besides, the pulmonary activity entry in data set [1] (dog, i.v., gamma camera) was “low and comparable to the background noise”. Further, the “activity in the liver” value in data set [1] (dog, i.v., gamma camera, 30 minutes post-injection) was “greatest in the liver at 5 minutes but decreases rapidly”.
For the molecule `CN(CCOc1ccc(CC2SC(=O)NC2=O)cc1)c1ccccn1` (racemic) [Rosiglitazone, (±)-5-[[4-[2-(methyl-2-pyridinylamino)ethoxy]phenyl]methyl]-2,4-thiazolidinedione], the “empirical descriptor (empirical index of rate of glucose transport into the heart) vs rats treated with placebo” value in data set [2] (p=0.006, FIG. 12) is recorded as “significantly greater”. In data set [2] (p=0.033, FIG. 12), the “empirical descriptor (empirical index of rate of glucose transport into the heart) vs same rats before treatment” value was “significantly greater”. Also, in data set [3], the “index characterizing the rate of glucose transport into the heart (theoretical index) vs rats treated with placebo” value was “significantly greater”. Besides, the “empirical descriptor (empirical index of rate of glucose transport into the skeletal muscle) vs rats treated with placebo” value in data set [4] (p=0.005, FIG. 16) was “significantly greater”. The “empirical descriptor (empirical index of rate of glucose transport into the skeletal muscle) vs same rats before treatment” value in data set [4] (p=0.021, FIG. 16) was “significantly greater”.
